How the values were obtained:
[1] = molecular target: Macrophage metalloelastase (Homo sapiens) (UniProt P39900); assay: Inhibition of MMP12 at […] by FRET assay
[2] = Metabolic stability in rat liver microsomes assessed as half life; format: ADME, Microsome
[3] = molecular target: Cytochrome P450 3A4 (Homo sapiens, UniProt P08684); assay: Inhibition of CYP3A4 at 30 uM by FRET assay; format: ADME
[4] = molecular target: Collagenase 3 (Homo sapiens, UniProt P45452); assay: Inhibition of MMP13 by FRET assay
[5] = molecular target: T1, A disintegrin and metalloproteinase with thrombospondin motifs 4 (Homo sapiens, UniProt O75173); assay: Inhibition of ADAMTS4 by FRET assay
T1 sequence (O75173 whole entry): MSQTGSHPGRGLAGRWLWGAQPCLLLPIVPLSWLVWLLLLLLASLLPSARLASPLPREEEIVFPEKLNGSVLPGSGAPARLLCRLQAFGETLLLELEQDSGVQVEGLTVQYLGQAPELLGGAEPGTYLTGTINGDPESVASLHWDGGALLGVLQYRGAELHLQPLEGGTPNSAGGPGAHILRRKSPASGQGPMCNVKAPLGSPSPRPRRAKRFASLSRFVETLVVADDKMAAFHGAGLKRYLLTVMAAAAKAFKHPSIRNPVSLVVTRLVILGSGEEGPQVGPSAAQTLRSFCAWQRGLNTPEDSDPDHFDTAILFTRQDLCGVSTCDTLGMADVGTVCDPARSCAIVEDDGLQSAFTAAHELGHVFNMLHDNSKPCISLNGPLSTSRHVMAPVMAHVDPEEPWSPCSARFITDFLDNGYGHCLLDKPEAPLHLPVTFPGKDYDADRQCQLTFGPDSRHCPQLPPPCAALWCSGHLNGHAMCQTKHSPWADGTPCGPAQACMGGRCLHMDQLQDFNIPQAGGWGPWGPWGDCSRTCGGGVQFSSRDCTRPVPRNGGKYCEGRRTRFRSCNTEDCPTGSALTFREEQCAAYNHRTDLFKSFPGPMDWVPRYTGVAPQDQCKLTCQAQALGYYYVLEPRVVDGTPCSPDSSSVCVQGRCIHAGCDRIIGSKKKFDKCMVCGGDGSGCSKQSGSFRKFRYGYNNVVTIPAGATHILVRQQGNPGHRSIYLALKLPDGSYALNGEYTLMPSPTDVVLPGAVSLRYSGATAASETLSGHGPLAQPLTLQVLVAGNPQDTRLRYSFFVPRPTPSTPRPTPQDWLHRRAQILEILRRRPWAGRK

[6] = molecular target: T2, A disintegrin and metalloproteinase with thrombospondin motifs 5 (Homo sapiens, UniProt Q9UNA0); assay: Inhibition of ADAMTS5 by FRET assay
T2 sequence (Q9UNA0 whole entry): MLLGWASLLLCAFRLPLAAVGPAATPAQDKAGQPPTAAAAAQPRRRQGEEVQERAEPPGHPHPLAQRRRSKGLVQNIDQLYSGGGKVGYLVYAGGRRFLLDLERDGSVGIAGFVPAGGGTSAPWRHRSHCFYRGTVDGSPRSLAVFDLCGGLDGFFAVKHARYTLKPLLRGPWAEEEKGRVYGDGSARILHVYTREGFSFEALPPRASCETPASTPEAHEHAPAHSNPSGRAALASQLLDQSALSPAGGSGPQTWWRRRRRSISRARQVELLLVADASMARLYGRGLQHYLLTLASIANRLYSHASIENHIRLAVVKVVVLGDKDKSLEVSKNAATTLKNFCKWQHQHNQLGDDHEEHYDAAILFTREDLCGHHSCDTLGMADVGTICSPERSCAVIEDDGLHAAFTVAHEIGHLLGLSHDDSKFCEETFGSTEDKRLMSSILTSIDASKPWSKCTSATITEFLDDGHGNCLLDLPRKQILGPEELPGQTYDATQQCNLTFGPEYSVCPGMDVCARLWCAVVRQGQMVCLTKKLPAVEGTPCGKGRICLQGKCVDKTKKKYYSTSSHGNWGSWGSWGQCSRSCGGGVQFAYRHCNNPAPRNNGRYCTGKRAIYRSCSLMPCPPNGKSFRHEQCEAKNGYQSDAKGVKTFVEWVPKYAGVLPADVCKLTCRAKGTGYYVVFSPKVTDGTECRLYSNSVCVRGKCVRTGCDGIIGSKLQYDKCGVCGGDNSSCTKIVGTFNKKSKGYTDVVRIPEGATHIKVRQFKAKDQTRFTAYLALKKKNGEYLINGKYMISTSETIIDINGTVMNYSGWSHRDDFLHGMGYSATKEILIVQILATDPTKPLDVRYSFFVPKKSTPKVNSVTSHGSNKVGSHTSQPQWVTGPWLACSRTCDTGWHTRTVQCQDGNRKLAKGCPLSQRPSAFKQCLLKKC

Chain of Macrophage metalloelastase (Homo sapiens) (P39900 106-470 limits assumed): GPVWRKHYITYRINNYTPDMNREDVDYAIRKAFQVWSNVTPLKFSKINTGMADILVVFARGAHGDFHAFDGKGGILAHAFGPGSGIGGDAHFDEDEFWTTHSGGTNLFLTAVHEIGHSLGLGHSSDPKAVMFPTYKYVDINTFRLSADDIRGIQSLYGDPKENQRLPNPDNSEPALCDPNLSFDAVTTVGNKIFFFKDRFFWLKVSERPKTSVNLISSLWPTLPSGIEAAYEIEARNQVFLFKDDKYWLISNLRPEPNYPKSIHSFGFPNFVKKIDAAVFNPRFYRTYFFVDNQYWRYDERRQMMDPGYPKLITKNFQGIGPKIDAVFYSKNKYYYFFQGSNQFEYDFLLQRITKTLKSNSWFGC
Chain of Cytochrome P450 3A4 (P08684 whole entry): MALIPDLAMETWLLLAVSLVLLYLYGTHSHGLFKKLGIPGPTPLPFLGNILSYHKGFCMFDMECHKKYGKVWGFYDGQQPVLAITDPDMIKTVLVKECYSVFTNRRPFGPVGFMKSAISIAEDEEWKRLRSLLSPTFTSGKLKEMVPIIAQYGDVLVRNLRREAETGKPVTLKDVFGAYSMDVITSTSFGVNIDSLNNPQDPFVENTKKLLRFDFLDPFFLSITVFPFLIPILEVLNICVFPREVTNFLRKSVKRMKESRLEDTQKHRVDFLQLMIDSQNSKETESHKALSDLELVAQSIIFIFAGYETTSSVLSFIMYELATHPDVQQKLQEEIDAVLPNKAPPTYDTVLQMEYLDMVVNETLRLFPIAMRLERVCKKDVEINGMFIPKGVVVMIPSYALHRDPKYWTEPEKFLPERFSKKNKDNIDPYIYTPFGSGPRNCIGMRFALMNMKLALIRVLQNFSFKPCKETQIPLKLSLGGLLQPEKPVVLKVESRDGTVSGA

O=C(COc1ccccc1)NC(c1cccc([N+](=O)[O-])c1)c1cc(Cl)c2cccnc2c1O (centres undefined) gave an inhibition [1] of 45%, a half-life [2] of 6 min and an inhibition (INH) [3] of 26%. The IC50 [4] was over 200 µM and the IC50 [5] was 1.9 µM.

O=C(COc1ccccc1)NC(c1ccccc1Cl)c1cc(Cl)c2cccnc2c1O (centres undefined) showed an inhibition [1] of 50%, an inhibition (INH) [3] of 43% and an IC50 [4] of over 67 µM. It also gave an IC50 [5] of 2.4 µM.

Cc1cc(OCC(=O)NC(c2cccc([N+](=O)[O-])c2)c2cc(Cl)c3cccnc3c2O)ccc1Cl (centres undefined) showed a half-life [2] of 30 min, an IC50 [6] of over 10 µM and an inhibition (INH) [3] of 19%.

COc1ccc(C(NC(=O)COc2ccc(Cl)c(C)c2)c2cc(Cl)c3cccnc3c2O)cc1 (centres undefined) showed a half-life [2] of 9 min, an IC50 [6] of over 10 µM and an inhibition (INH) [3] of 25%.

In the case of COc1ccc(OCC(=O)NC(c2ccc(OC)cc2)c2cc(Cl)c3cccnc3c2O)cc1 (centres undefined), the inhibition [1] is reported as 37%, the inhibition (INH) [3] is reported as 74% and the IC50 [4] is reported as over 200 µM. The IC50 [5] was over 50 µM.

Source: ChEMBL document CHEMBL1141004, “N-((8-hydroxy-5-substituted-quinolin-7-yl)(phenyl)methyl)-2-phenyloxy/amino-acetamide inhibitors of ADAMTS-5 (Aggrecanase-2)” (Bioorg Med Chem Lett, 2008)
